From patent US20260241039A1, “FLUORESCENT PROBES FOR MAGL” (Hoffmann-La Roche Inc., priority 2022, published 2026)

Biological target: T1, hMAGL (Homo sapiens, UniProt Q99685)
T1 sequence (Q99685 1-303): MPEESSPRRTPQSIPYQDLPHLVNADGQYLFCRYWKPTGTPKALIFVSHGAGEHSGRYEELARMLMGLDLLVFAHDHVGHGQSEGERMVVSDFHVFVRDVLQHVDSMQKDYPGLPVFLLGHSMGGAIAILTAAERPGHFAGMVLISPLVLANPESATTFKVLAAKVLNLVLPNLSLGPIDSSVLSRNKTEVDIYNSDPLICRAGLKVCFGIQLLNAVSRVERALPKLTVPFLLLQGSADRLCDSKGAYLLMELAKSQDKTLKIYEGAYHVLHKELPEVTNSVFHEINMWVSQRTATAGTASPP
Assay: 2-AG assay: MAGL inhibitory activity, hydrolysis of 2-arachidonoylglycerol to arachidonic acid followed by mass spectrometry
Type: biochemical
Conditions: 15 min pre-incubation at RT, 30 min reaction at RT, 8 μM 2-arachidonoylglycerol
Method: Compounds were profiled for MAGL inhibitory activity by determining the enzymatic activity by following the hydrolysis of the natural substrate 2-arachidonoylglycerol (2-AG) resulting in arachidonic acid, which can be followed by mass spectrometry. This assay is hereinafter abbreviated “2-AG assay”.
The 2-AG assay was carried out in 384 well assay plates (PP, Greiner Cat #784201) in a total volume of 20 μL. Compound dilutions were made in 100% DMSO (VWR Chemicals 23500.297) in a polypropylene plate in 3-fold dilution steps to give a final concentration range in the assay from 12.5 μM to […]. 0.25 μL compound dilutions (100% DMSO) were added to 9 μL MAGL in assay buffer (50 mM TRIS (GIBCO, 15567-027), 1 mM EDTA (Fluka, 03690-100 mL), 0.01% (v/v) Tween. After shaking, the plate was incubated for 15 min at RT. To start the reaction, 10 μL 2-arachidonoylglycerol in assay buffer was added. The final concentrations in the assay was […] and 8 μM 2-arachidonoylglyerol. After shaking and 30 min incubation at RT, the reaction was quenched by the addition of 40 μL of ACN containing 4 μM of d8-arachidonic acid. The amount of arachidonic acid was traced by an online SPE system (Agilent Rapidfire) coupled to a triple quadrupole mass spectrometer (Agilent 6460). A C18 SPE cartridge (G9205A) was used in an ACN/water liquid setup. The mass spectrometer was operated in negative electrospray mode following the mass transitions 303.1→259.1 for arachidonic acid and 311.1→267.0 for d8-arachidonic acid. The activity of the compounds was calculated based on the ratio of intensities [arachidonic acid/d8-arachidonic acid].

O=C(N1CC2(CC(CC3=C4C=CC=[N+]4[B-](F)(F)n4c3ccc4-c3ccc[nH]3)C2)C1)N1CC2(CC(n3cnc(C4CC4)n3)C2)C1 [Example 31, (6-(3-cyclopropyl-1H-1,2,4-triazol-1-yl)-2-azaspiro[3.3]heptan-2-yl)(6-((5,5-difluoro-3-(1H-pyrrol-2-yl)-5H-5λ^4,6λ^4-dipyrrolo[1,2-c:2′,1′-f][1,3,2]diazaborinin-10-yl)methyl)-2-azaspiro[3.3]heptan-2-yl)methanone] and “(4aR,8aS)-6-(7-((5,5-difluoro-5H-4λ^4, 5λ^4-dipyrrolo[1,2-c:2,1′-f][1,3,2]diazaborinin-10-yl)methylene)-2-azaspiro[3.5]nonane-2-carbonyl)hexahydro-2H-pyrido[4,3-b][1, 4]oxazin-3(4H)-one [Example 18]” are within 1.5-fold of each other in IC50: 0.59 nM for the first, 0.64 nM for the second.

First: (4aR,8aS)-6-(4-((5,5-difluoro-5H-4λ^4, 5λ^4-dipyrrolo[1,2-c:2′,1′-f][1,3,2]diazaborinin-10-yl)oxy)piperidine-1-carbonyl)hexahydro-2H-pyrido[4,3-b][1,4]oxazin-3(4H)-one [Example 9]
Second: (4aR,8aS)-6-(7-((5,5-difluoro-5H-4λ^4, 5λ^4-dipyrrolo[1,2-c:2,1′-f][1,3,2]diazaborinin-10-yl)methyl)-2-azaspiro[3.5]nonane-2-carbonyl)hexahydro-2H-pyrido[4,3-b][1,4]oxazin-3(4H)-one [Example 19]
The IC50 of the first is 2700-fold higher: 6320 nM for the first, 2.35 nM for the second. The second is the more potent here.

With O=C1COC2CCN(C(=O)N3C[C@@H]4[C@@H](COC5=C6C=CC=[N+]6[B-](F)(F)n6cccc65)[C@@H]4C3)CC2N1 (stereo partly drawn) [Example 14, (4aR,8aS)-6-((1R,5S,6R)-6-(((5,5-difluoro-5H-4λ^4,5λ^4-dipyrrolo[1,2-c:2′,1′-f][1,3,2]diazaborinin-10-yl)oxy)methyl)-3-azabicyclo[3.1.0]hexane-3-carbonyl)hexahydro-2H-pyrido[4,3-b][1,4]oxazin-3(4H)-one] the IC50 was 500 nM.
